Laboratory results: ChEMBL document CHEMBL1145718, “Two new nitrogenous sesquiterpenes from the sponge Axinyssa aplysinoides” (1997)

How the values were obtained:
Assay type in all cases: functional
[1] = tested on: Saccharomyces cerevisiae; assay: DNA damaging activity against DNA repair-deficient delta RAD52 mutant yeast assessed as drug level required to produce 12 mm zone of inhibition assessed per 100 uL
[2] = tested on: Saccharomyces cerevisiae; assay: DNA damaging activity against DNA repair-deficient delta RAD52/delta TOP1 mutant yeast assessed as drug level required to produce 12 mm zone of inhibition assessed per 100 uL
[3] = tested on: Saccharomyces cerevisiae; assay: DNA damaging activity against wild type yeast assessed as drug level required to produce 12 mm zone of inhibition assessed per 100 uL

Compound | IC12 [1] | IC12 [2] | IC12 [3]
CC(C)[C@@H]1C[C@@H]2C(C)(NC(=O)NCCc3ccccc3)[C@H]3C[C@@H]1C[C@]2(C)C3 (stereo partly specified) | 45 µg | 12 µg | 14 µg
CC(C)[C@@H]1C[C@@H]2C(C)(NC=O)[C@H]3C[C@@H]1C[C@]2(C)C3 (stereo partly specified) | 51 µg | 4.8 µg | 31 µg
